The results in this text go back to patent publication US20250108050A1, “COMBINATION OF EGFR INHIBITOR AND MEK INHIBITOR FOR USE IN THE TREATMENT OF NRAS MUTATED CANCER” (ASTRAZENECA AB, priority 2014, published 2025).

Series [1] relates to PC9 cells. Kind of series: cells. Particulars: Homo sapiens, PC-9, read-out: concentration required to inhibit growth of PC9 cells by 50% (EC50). As for the experimental part: PC9 cells were seeded at 5×10^5 cells in multiple fresh T75 flasks in growth media and incubated at 37° C., 5% CO2.
In series [2] the test system is active NRAS. Kind of series: RAS activation assay (GST-RAS binding domain pull down, western blot) in resistant PC-9 cells with E63K or G12V NRAS. It is filed as cell-based, human. Particulars: mutant NRAS (E63K or G12V) resistant PC-9 cells; 160 nM for 2 hours. As for the experimental part:
(§1) PC9 and PC9 AZD9291 resistant cells were cultured in media containing no AZD9291 for 4 days. Cells were then plated into 6 well plates and serum starved overnight. The following day the cells were treated for 2 hours with media supplemented with or without 160 nM AZD9291. Lysates were prepared and active NRAS isolated using a GST-RAS binding domain pull down assay (Thermo Scientific). Pull down lysates were analysed by western blot using an NRAS specific antibody.

The test system of series [3] is active NRAS. Kind of series: RAS activation assay (GST-RAS binding domain pull down, western blot) in parental PC-9 cells. It is filed as cell-based, human. Particulars: 160 nM for 2 hours. As for the experimental part:
as §1

Series [4] deals with PC9 cells. Kind of series: Growth inhibition of PC9 cells over expressing E63K mutant NRAS (sytox green). Particulars: 100 nM AZD9291 or 300 nM gefitinib, 96 hours, vs control construct. It is filed as cell-based, human.
Protocol: PC9 cells were transfected with control DNA construct, pcDNA 3.1+ control, or a construct designed to express E63K mutant NRAS, pcDNA 3.1+/NRAS E63K, (Life Technologies Ltd.). For 96 hour expression MaxCyte transfection technology was used to electroporate the PC9 cells. PC9 cells were passaged the day before the transfection. On the day of the transfection cells were harvested and resuspended at 9×10^7 cells per 600 μL MaxCyte buffer. 100 μL of cell suspension was transferred to a MaxCyte cuvette and the cells electroporated with 20 μg DNA construct. Following electroporation the cells for each condition were transferred to a 6 well plate and incubated at 37° C. for 30 minutes after which they were seeded in a 6 well plate at 4×10^5 cells per well. Following over night incubation the cells were harvested and replated in 384 well plate at 1000 cells/well. […] A live cell number was determined using the sytox green method as described hereinbefore.
Series [5] relates to PC9_9291R_LOB1 (NRAS E63K). Kind of series: Sytox Green live cell number assay, selumetinib titration. The class given is cell-based. Particulars: Homo sapiens, with originating EGFR inhibitor, 72 hours. As for the experimental part: (§2) The effects of a panel of canonical pathway inhibitors on cell growth and survival was measured using a cell assay using Sytox Green staining as an end point.
(§3) Cell lines were plated in 384 well plates at 1000 cells per well in 70 μL per well of RPMI media containing 10% foetal calf serum, 2 mM L-glutamine and originating EGFR inhibitor.
(§4) The cells were allowed to attach overnight at 37° C., 5% CO2. The following day titrations of test compound were added to the assay plates using an Echo Liquid Handler Labcyte (California, USA) and the treated cells incubated for a further 72 hours at 37° C., 5% CO2. Each compound was tested as an 11 point dose response with a top concentration of 10 μM and 1 in 3 dilutions. Following 72 hours incubation of the compound treated plates, 5 μL of 2 μM SYTOX Green Nucleic Acid Stain, Life Technologies (Paisley, UK) was added per well and the plates incubated at room temperature for one hour. The number of fluorescent cells per well was measured on the Acumen TTP LabTech Ltd. (Melbourn, UK) this number representing the dead cell count. 10 μL of 0.25% Saponin Sigma (Dorset, UK) was added per well and the plates incubated over night at room temperature. The total number of fluorescent cells per well was acquired on the Acumen. The number of dead cells was subtracted from the total number of cells and the live cell number plotted to determine EC50 values from dose response curves.

The next series relates to PC9_IRGM (NRAS WT). The description is as above. It is filed as cell-based. Particulars: Homo sapiens, with originating EGFR inhibitor, 72 hours. As for the experimental part: as §2, §3, §4
The subject of series [6] is PC9_IR4_9291R_3 (NRAS WT gain). The series is described as above. It is filed as cell-based. Particulars: Homo sapiens, with originating EGFR inhibitor, 72 hours. On the procedure:
as §2, §3, §4

In series [7] the test system is PC9_IR4_9291R_2 (NRAS WT gain). The description is as above. It is filed as cell-based. Particulars: Homo sapiens, with originating EGFR inhibitor, 72 hours. As for the experimental part:
as §2, §3, §4

The next series relates to PC9 (NRAS WT). The series is described as above. The class given is cell-based. Particulars: Homo sapiens, PC9 (NRAS WT) parental, 72 hours. As for the experimental part:
as §2, §3, §4

In another series the test system is PC9_IRLR (NRAS E63K). Described as above. The class given is cell-based. Particulars: Homo sapiens, with originating EGFR inhibitor, 72 hours. As for the experimental part: as §2, §3, §4
The next series relates to PC9_9291R_3 (NRAS G12V). The series is described as above. The class given is cell-based. Particulars: Homo sapiens, with originating EGFR inhibitor, 72 hours. As for the experimental part:
as §2, §3, §4

Series [8] has as its system PC9_afatinib_5 (NRAS gain). Described as above. It is filed as cell-based. Particulars: Homo sapiens, with originating EGFR inhibitor, 72 hours. As for the experimental part: as §2, §3, §4
For series [9], the system named is PC9_9291R_LOB3 (NRAS G12R). The description is as above. The class given is cell-based, human. As for the experimental part:
as §2, §3
as §4, with “The total number of fluorescent cells per well was acquired on the Acumen. The number of dead cells was subtracted from the total number of cells and the live cell number plotted to determine EC50 values from dose response curves.” left out
An AZD9291-resistant PC9 cell line was prepared using standard methods as illustrated hereinbefore. A range of such resistant cell populations were cultured and analysed.

For a further series, the system named is NRAS. Kind of series: siRNA knockdown, western blot of NRAS expression. The class given is cell-based, human. Particulars: 20 nM siRNA, 48 hours; PC9, PC9 gefitinib-resistant and PC9 AZD9291-resistant cells. As for the experimental part: (§5) PC9, PC9 gefitinib-resistant and PC9 AZD9291-resistant cells were plated at 5×10^5 cells per well in 6 well plates in 2 mls per well of growth media supplemented with EGFR inhibitor where appropriate (resistant cells were grown in the presence of EGFR inhibitor). The cells were incubated over night at 37° C., 5% CO2. The following day the cells were treated with a final concentration of 20 nM of siRNA from Dharmacon as detailed in Table 7.
(§6) Each siRNA construct was prepared in Optimem (Life Technologies) media using RNA iMAX (Invitrogen) as transfection reagent. For each well: 2.5 μl of siRNA (20 μM stock) was mixed with 250 μL of Optimem; and 2.5 μL of RNA iMAX was mixed with 250 μL of Optimem. The 2 solutions were mixed together by pipetting and allowed to stand for 5 minutes at room temperature. The final 500 μL solution was then pipetted into the appropriate 2 mL of growth media in the 6 well plates. The plates were swirled gently and further incubated over night at 37° C., 5% CO2. The following day each well of cells was harvested and the cell number counted.
(§7) The following day, lysates were prepared from the 6 well plates so that knockdown of protein expression could be assessed following 48 hours treatment with siRNA. The lysates were analysed by western blot for levels of: phosphorylated EGFR, phosphorylated ERK, NRAS and KRAS. […]

The next series relates to KRAS. Kind of series: siRNA knockdown, western blot of KRAS expression. It is filed as cell-based, human. Particulars: 20 nM siRNA, 48 hours; PC9, PC9 gefitinib-resistant and PC9 AZD9291-resistant cells. On the procedure: as §5, §6, §7
On the technique in general: Immunoblotting shows a protein as a band on a membrane.

Take `C=CC(=O)Nc1cc(Nc2nccc(-c3cn(C)c4ccccc34)n2)c(OC)cc1N(C)CCN(C)C` [AZD9291, N-(2-{2-dimethylaminoethyl-methylamino}-4-methoxy-5-{[4-(1-methylindol-3-yl)pyrimidin-2-yl]amino}phenyl)prop-2-enamide]: the EC50 with PC9 cells [1] came out at 10 nM. For the same molecule, in the series with active NRAS [2], the “active NRAS” value is given as “not associated with corresponding decrease in active NRAS” and the “phosphorylated EGFR” value is listed as “decrease”. For the same molecule, in the series with active NRAS [3], the “active NRAS” value is given as “decrease” and the “phosphorylated EGFR” value is on record as “decrease”. Also, in the series with PC9 cells [4], the “cell growth inhibition when cells over expressed E63K mutant NRAS” value was “reduced”.

In the case of `Cn1cnc2c(F)c(Nc3ccc(Br)cc3Cl)c(C(=O)NOCCO)cc21` [Selumetinib, 5-[(4-bromo-2-chlorophenyl)amino]-4-fluoro-N-(2-hydroxyethoxy)-1-methyl-1H-benzimidazole-6-carboxamide], the EC50 in [5] came out at 167 nM; in the series with PC9_IRGM (NRAS WT), 7240 nM; in series [6], 130 nM; in series [7], 540 nM; in the series with PC9 (NRAS WT), 6950 nM; in the series with PC9_IRLR (NRAS E63K), 620 nM. For the same molecule, the EC50 was 1400 nM in the series with PC9_9291R_3 (NRAS G12V); 890 nM in [8]; 140 nM in [9] (Homo sapiens, PC9_9291R_LOB3 (NRAS G12R), with originating EGFR inhibitor, 72 hours). In addition, the “increased sensitivity as compared to the parental cell line” value in series [9] (AZD9291-resistant PC9 population with NRAS G12R vs parental cell line) is listed as above 5 fold.

For “KRAS_1: siRNA from Dharmacon, J-005069-10, sequence GAAGUUAUGGAAUUCCUUU, SEQ ID NO: 16 (listed as RNA, chemistry not given here; listed as Homo sapiens)”, the “NRAS expression (western blot)” value in the series with NRAS is “no affect”. Besides, the “KRAS expression (western blot)” value in the series with KRAS is “knockdown”.
